# Experimental data published in patent US9802990B2, “Functional peptides for obesity disorders” (DANONE, S.A., priority 2013, dated 2017).
# pIC50: −log10 of the molar value. Like-named read-outs stand apart in the source and are kept apart here. Where no end group is shown, it is not given here.
# Key:
# soy glycinin = assay: Protease activity of LAB strains (supernatant and cells); type: biochemical; conditions: for Protease activity cell: cells; for Protease activity Supernatant: culture supernatant, proteases above 10 KDa concentrated
# Source text: For the purpose of selecting the most efficient lactic acid bacteria having protease activity against glycinin, different strains of the genera Lactobacillus and Streptococcus were subject to the following hydrolysis assay.
# The substrate selected to carry out the process of hydrolysis was soy glycinin. Glycinin is the soy major protein extracted from soy flour after treatment with mercaptoethanol followed by two centrifugation steps as described in Thanh V. H. et al. (Major proteins of soybean seeds: a straightforward fractionation and their characterization. 1976. J Agric Food Chem 24: 1117-1121). Among the enzymatic sources used to degrade glycinin, ten strains were tested: 6 strains from Streptococcus genera (strains 2, 3, 4, 5, 6, 7) and 4 strains from Lactobacillus genera (strains 8, 9, 10 and 11). All these strains were grown in optimal medium (MRS for Lactobacillus strains and BHI for Streptococcus strains) during 17 h at 37° C. and the proteases with a molecular weight above 10 KDa both in supernatant and cells were concentrated to be used as enzymatic sources in glycinin hydrolysis assays. On one hand, proteases from the supernatant were obtained after centrifugation for 15 min at 4000 rpm. Then the supernatant was ultrafiltrated by 10 KDa and the top was resuspended in 2 ml with 50 mM citrate phosphate buffer pH 7. On the other hand, cells obtained from the different cultures were washed with saline solution for 15 min at 4000 rpm and resuspended in 50 mM citrate phosphate buffer pH 7 to evaluate the protease activity in cells and supernatant (Table 1).
# [1] = In vitro enzymatic digestion model of the digestive tract (pepsin, pancreatin, bile), HPLC; type: in vitro ADME; conditions: for metabolised at 0.5 h / metabolised at 2 h / metabolised at 0.25 h / metabolised at 1 h / metabolised at 5 min: read-out: Degradation (%); for degradation in the in vitro digestion model (in words): HPLC, completely degraded = at the beginning of the intestinal phase, resistant ones finally degraded at the end; for metabolised at 0.25 h: Intestinal phase 15 min.; for metabolised at 1 h: Intestinal phase 60 min.
# Source text: An in vitro enzymatic digestion model of an in vivo digestive tract was developed for mimicking the physiological conditions to check and certify that each selected peptide was differently degraded throughout the gastro-intestinal tract by the digestive process. Pepsin, pancreatin and bile concentrations were optimized using a published experimental design (Granado-Lorencio et al (2007). J. Agri. Food. Chem., 55, 6387-6394).
# [2] = system: C. elegans wild type strain N2; assay: C. elegans body fat reduction, Nile Red staining; type: in vivo, Caenorhabditis elegans; conditions: for % Fluorescence Reduction: nematodes fed NG with peptides alone or in Savia soy fermented product, alone or mixed, 1 μg/mL final concentration, Nile Red; for % Fluorescence Reduction C. elegans: synthesized peptides at 1 μg/mL of final concentration
# Experimental: The ability to reduce body fat content in the nematode C. elegans was analyzed in a group of 5 peptide extracts previously obtained from glycinin (see Table 4). These samples were selected by their high effect on PL and PLA2 in vitro inhibition. Specifically, 5 peptide extracts were selected from the PLA2 inhibition assay (M20G, M5G, M31G, M27G and M29G). Body fat content was analyzed in the C. elegans wild type strain N2 by Red Nile dying of living nematodes. Experiments were carried out with age-synchronized populations, starting from egg-stage to young adult stage (3-day adults). During the experiments, worms were cultured in the NGM agar plates as control condition, NGM with the corresponding peptide extracts (100 μL/plate) and NGM with 6 μg/mL of Orlistat as positive control. Nile Red was added on top of the NG plates already seeded with Escherichia coli OP50 strain to a final concentration of 0.05 μg/ml. After incubation at 20° C., young adult worms (60 worms per condition) were taken to measure the in vivo fluorescence in a VersaFluor™ Fluorometer System. Fluorescence obtained in treated worms was calculated from fluorescence of worms fed in control conditions (reference sample). Experiments were carried out by duplicate.
# From these purified fractions, a total of 11 peptides were selected to be synthesized and evaluated in vivo in the obesity model of C. elegans (Table 9). All peptides were evaluated at 1 μg/mL of final concentration.
# We selected 5 peptides obtained from hydrolysis of glycinin with strain 6 (P8a, P6a, P14c, P16f, P14b) The peptides from glycinin were added to a soy fermented product (Savia® from Danone) both alone or mixed at final concentration of 1 μg/mL. Nematodes were fed with these products and then total lipids were quantified by Nile Red staining.
# [3] = target: PLA2 (pancreatic phospholipase A2) (Homo sapiens, UniProt P04054); assay: PLA2 inhibition assay by HPLC with DOPC as substrate; type: biochemical
# Experimental: Inhibition of PLA2 enzyme was determined by High Performance Liquid Chromatography (HPLC) using 1,2-dioleoyl-sn-glycero-3-phosphocholine (DOPC) as substrate as described by Singh et al. (A rapid isocratic high-performance liquid chromatography method for determination of cholesterol and 1,2-dioleoyl-sn-glycero-3-phosphocholine. Journal of Chromatography (2005); 1073:347-353). Waters 2695 HPLC with Waters 2996 Photodiode detector Array and a C8 column Hypersil BDS (250×4.6 mm, […]) were used carrying out an eluent isocratic method formed by a mixture of ammonium phosphate buffer 50 mM pH 2.7:methanol (15:85, v/v).
# PL (pancreatic lipase) = target: T1, PL (pancreatic lipase) (Sus scrofa, UniProt P00591); assay: PL inhibition assay with 4-methyl umbelliferyl oleate (4MUO), fluorescence; type: biochemical; conditions: synthesized peptides
# T1 sequence (P00591 1-450): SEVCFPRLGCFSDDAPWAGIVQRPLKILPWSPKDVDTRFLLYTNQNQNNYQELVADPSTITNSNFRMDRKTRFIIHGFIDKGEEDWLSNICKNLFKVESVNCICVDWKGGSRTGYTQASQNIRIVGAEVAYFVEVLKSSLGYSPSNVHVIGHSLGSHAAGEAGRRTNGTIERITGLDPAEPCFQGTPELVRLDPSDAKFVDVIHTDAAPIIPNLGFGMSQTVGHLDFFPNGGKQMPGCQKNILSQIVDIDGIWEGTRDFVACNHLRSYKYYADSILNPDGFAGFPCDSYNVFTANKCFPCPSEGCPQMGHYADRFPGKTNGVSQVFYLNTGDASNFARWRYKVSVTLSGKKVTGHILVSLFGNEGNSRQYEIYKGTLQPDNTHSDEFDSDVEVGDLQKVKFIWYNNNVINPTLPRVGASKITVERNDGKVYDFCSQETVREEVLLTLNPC
# Experimental: Inhibition of PL was determined using 4-methyl umbelliferyl oleate (4MUO) as substrate as described by Sugiyama et al. (Oligomeric procyanidins in apple polyphenol are main active components for inhibition of pancreatic lipase and triglyceride absorption. J Agric Food Chem (2007); 55: 4604-4609) with some modifications. Aliquots of 25 μl of each peptide extract were incubated with 25 μl of PL solution (1 mg/ml) and preincubated for 10 minutes at 26° C. with stirring of 500 rpm. Reaction was initiated by adding 50 μl of 4MUO (0.1 mM) dissolved in Dulbecco's buffer. After incubation at 26° C. for 20 minutes with constant stirring (500 rpm) the reaction was stopped by adding 100 μl of 0.1 M sodium citrate buffer (pH 4.2). The amount of 4-methyl umbelliferone released by the enzyme was determined by fluorescence. Peptide extracts were used as inhibitors in the enzymatic assay but had to be diluted 1/20 or 1/50 because of the interference between the fluorescence and the buffer containing the peptides.
# Chain of PLA2 (pancreatic phospholipase A2) (P04054 23-148, species assumed): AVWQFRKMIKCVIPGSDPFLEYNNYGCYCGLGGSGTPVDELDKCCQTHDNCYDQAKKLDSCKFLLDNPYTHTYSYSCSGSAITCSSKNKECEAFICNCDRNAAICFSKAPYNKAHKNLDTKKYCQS
substance,measurement,setting,value
Streptococcus thermophilus CNCM I-2965 [Strain 2],Protease activity cell,soy glycinin,0.003 U.I./ml
same,Protease activity Supernatant,soy glycinin,0.005 U.I./ml
Lactobacillus paracasei paracasei CNCM I-4270 [Strain 10],Protease activity cell,soy glycinin,0.005 U.I./ml
same,Protease activity Supernatant,soy glycinin,0.016 U.I./ml
Lactobacillus delbrueckii lactis CNCM I-4280 [Strain 8],Protease activity cell,soy glycinin,0.009 U.I./ml
same,Protease activity Supernatant,soy glycinin,0.028 U.I./ml
"QGENEEEDSGAIVTVK [Peptide P16f, QGENEEEDSGAIVTVK]",metabolised at 0.5 h,[1]; Gastric phase 30 min.,65.8%
same,metabolised at 2 h,[1]; Gastric phase 120 min.,95.2%
same,degradation in the in vitro digestion model (in words),[1],completely degraded
same,metabolised at 0.25 h,[1],100%
same,metabolised at 0.5 h,[1]; Intestinal phase 30 min.,100%
same,metabolised at 1 h,[1],100%
same,metabolised at 2 h,[1]; Intestinal phase 120 min.,100%
same,Degradation (%),[1]; Oral phase 5 min.,−1.2%
same,% Fluorescence Reduction,[2],33.9 ± 5.7%
same,% Fluorescence Reduction C. elegans,[2],38.95 ± 8.7%
same,Percentage of PLA2 inhibition,[3]; peptide 0.035 mg/ml,13.6 ± 3.8%
same,Percentage of PLA2 inhibition,[3]; peptide 0.35 mg/ml,13.6 ± 0.4%
same,Percentage of PLA2 inhibition,[3]; peptide 2 mg/ml,15.9 ± 6.0%
same,Percentage of PLA2 inhibition,[3]; peptide 3.5 mg/ml,22.5 ± 3.7%
same,pIC50,PL (pancreatic lipase),3.58
"EEDQPRPDHPPQRP [Peptide P14c, EEDQPRPDHPPQRP]",metabolised at 0.5 h,[1]; Gastric phase 30 min.,4.2%
same,metabolised at 2 h,[1]; Gastric phase 120 min.,4.6%
same,degradation in the in vitro digestion model (in words),[1],completely degraded
same,metabolised at 0.25 h,[1],92.9%
same,metabolised at 0.5 h,[1]; Intestinal phase 30 min.,93.2%
same,metabolised at 1 h,[1],95%
same,metabolised at 2 h,[1]; Intestinal phase 120 min.,95.5%
same,metabolised at 5 min,[1]; Oral phase 5 min.,5.3%
same,% Fluorescence Reduction,[2],33.7 ± 5.5%
same,% Fluorescence Reduction C. elegans,[2],39.37 ± 7.08%
same,Percentage of PLA2 inhibition,[3]; peptide 0.035 mg/ml,20.4 ± 4.4%
same,Percentage of PLA2 inhibition,[3]; peptide 0.35 mg/ml,21.1 ± 4.3%
same,Percentage of PLA2 inhibition,[3]; peptide 2 mg/ml,25.2 ± 4.3%
same,Percentage of PLA2 inhibition,[3]; peptide 3.5 mg/ml,26.1 ± 4.1%
same,pIC50,PL (pancreatic lipase),4.54
DEDEDEDKPRPSRP (DEDEDEDKPRPSRP; listed as Glycine soja) [Peptide P14d],% Fluorescence Reduction C. elegans,[2],6.26 ± 7.6%
"EEEGGSVLSG [Peptide P10b, EEEGGSVLSG]",% Fluorescence Reduction C. elegans,[2],33.48 ± 6.1%
same,Percentage of PLA2 inhibition,[3]; peptide 0.035 mg/ml,7.8 ± 5.6%
same,Percentage of PLA2 inhibition,[3]; peptide 0.35 mg/ml,13.9 ± 3.3%
same,Percentage of PLA2 inhibition,[3]; peptide 2 mg/ml,26.1 ± 5.9%
same,Percentage of PLA2 inhibition,[3]; peptide 3.5 mg/ml,26.9 ± 2.5%
same,pIC50,PL (pancreatic lipase),4.44
Streptococcus thermophilus CNCM I-3211 [Strain 5],Protease activity cell,soy glycinin,0.001 U.I./ml
same,Protease activity Supernatant,soy glycinin,0.003 U.I./ml
Lactobacillus helveticus CNCM I-4279 [Strain 9],Protease activity cell,soy glycinin,0.012 U.I./ml
same,Protease activity Supernatant,soy glycinin,0.010 U.I./ml
"SDNFEY [Peptide P6a, SDNFEY]",metabolised at 0.5 h,[1]; Gastric phase 30 min.,31%
same,metabolised at 2 h,[1]; Gastric phase 120 min.,66.9%
same,metabolised at 0.25 h,[1],100%
same,metabolised at 0.5 h,[1]; Intestinal phase 30 min.,100%
same,metabolised at 1 h,[1],100%
same,metabolised at 2 h,[1]; Intestinal phase 120 min.,100%
same,metabolised at 5 min,[1]; Oral phase 5 min.,23.7%
same,% Fluorescence Reduction,[2],36.2 ± 4.1%
same,% Fluorescence Reduction C. elegans,[2],40.90 ± 11.6%
same,Percentage of PLA2 inhibition,[3]; peptide 0.035 mg/ml,10.6 ± 5.0%
same,Percentage of PLA2 inhibition,[3]; peptide 0.35 mg/ml,12.1 ± 4.0%
same,Percentage of PLA2 inhibition,[3]; peptide 2 mg/ml,24.5 ± 1.4%
same,Percentage of PLA2 inhibition,[3]; peptide 3.5 mg/ml,31.9 ± 5.5%
same,pIC50,PL (pancreatic lipase),4.26
Streptococcus thermophilus CNCM I-2776 [Strain 6],Protease activity cell,soy glycinin,0.001 U.I./ml
same,Protease activity Supernatant,soy glycinin,0.006 U.I./ml
